Earlier results on 1 molecule are cited in US12194111B2, “Alpha emitter compositions and methods” (Nant Holdings IP, LLC, priority 2018, dated 2025).

For this data set, the system named is relapsed or refractory soft tissue sarcoma. Conditions: clinical trial; treatment of relapsed or refractory soft tissue sarcoma.

Take `COc1cccc2c1C(=O)c1c(O)c3c(c(O)c1C2=O)C[C@@](O)(/C(CO)=N/NC(=O)CCCCCN1C(=O)C=CC1=O)C[C@@H]3O[C@H]1C[C@H](N)[C@H](O)[C@H](C)O1` [aldoxorubicin]: the progression free disease result was “did not show a significant increase in progression free disease”.
